Source: PubChem BioAssay (NCI)
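Each compound was tested at five concentrations against cells in 96-well plates for 48 hours. GI50 = concentration required for 50% inhibition of growth. TGI denotes the concentration required for complete inhibition of growth.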

Tests used:
Assay in all cases: NCI tumour cell line growth inhibition, 48 h
U251 CNS = system: U251 CNS
MALME-3M melanoma = system: MALME-3M melanoma
NCI/ADR-RES ovarian = system: NCI/ADR-RES ovarian
SNB-75 CNS = system: SNB-75 CNS
SN12C renal = system: SN12C renal
K-562 leukemia = system: K-562 leukemia
RXF 393 renal = system: RXF 393 renal
RPMI-8226 leukemia = system: RPMI-8226 leukemia
BT-549 breast = system: BT-549 breast
CAKI-1 renal = system: CAKI-1 renal
HS 578T breast = system: HS 578T breast
EKVX NSCLC = system: EKVX NSCLC
OVCAR-5 ovarian = system: OVCAR-5 ovarian
OVCAR-3 ovarian = system: OVCAR-3 ovarian
LOX IMVI melanoma = system: LOX IMVI melanoma
MDA-MB-435 = system: MDA-MB-435
MDA-MB-231 breast = system: MDA-MB-231 breast
HT29 colon = system: HT29 colon
SF-295 CNS = system: SF-295 CNS
SF-268 CNS = system: SF-268 CNS
ACHN renal = system: ACHN renal
NCI-H226 lung = system: NCI-H226 lung
HCC-2998 colon = system: HCC-2998 colon
SK-OV-3 ovarian = system: SK-OV-3 ovarian
SW-620 colon = system: SW-620 colon
HCT-116 colon = system: HCT-116 colon
OVCAR-8 ovarian = system: OVCAR-8 ovarian
TK-10 renal = system: TK-10 renal
UACC-257 melanoma = system: UACC-257 melanoma
NCI-H23 lung = system: NCI-H23 lung
CCRF-CEM leukemia = system: CCRF-CEM leukemia
HOP-92 NSCLC = system: HOP-92 NSCLC
COLO 205 colon = system: COLO 205 colon
MOLT-4 leukemia = system: MOLT-4 leukemia
SR leukemia = system: SR leukemia
SK-MEL-5 melanoma = system: SK-MEL-5 melanoma
SF-539 CNS = system: SF-539 CNS
A549 NSCLC = system: A549 NSCLC
IGROV1 ovarian = system: IGROV1 ovarian
MCF7 breast = system: MCF7 breast
HOP-62 NSCLC = system: HOP-62 NSCLC
A498 renal = system: A498 renal
UO-31 renal = system: UO-31 renal
KM12 colon = system: KM12 colon
786-0 renal = system: 786-0 renal
DU-145 prostate = system: DU-145 prostate
T-47D breast = system: T-47D breast
NCI-H460 lung = system: NCI-H460 lung
PC-3 prostate = system: PC-3 prostate
HCT-15 colon = system: HCT-15 colon
SNB-19 CNS = system: SNB-19 CNS
M14 melanoma = system: M14 melanoma
UACC-62 melanoma = system: UACC-62 melanoma
OVCAR-4 ovarian = system: OVCAR-4 ovarian
HL-60(TB) leukemia = system: HL-60(TB) leukemia
SK-MEL-2 melanoma = system: SK-MEL-2 melanoma
SK-MEL-28 melanoma = system: SK-MEL-28 melanoma

With C=C(C=O)[C@@H]1CC[C@]2(CO)CC[C@]3(C)[C@H](CC[C@@H]4[C@@]5(C)CCCNC(C)(C)[C@@H]5CC[C@]43C)[C@@H]12 the GI50 (U251 CNS) was 4.43 µM, the TGI (U251 CNS) was 17.8 µM and the GI50 (MALME-3M melanoma) was 10.8 µM. For the same compound, the TGI (MALME-3M melanoma) was 26.4 µM, the GI50 (NCI/ADR-RES ovarian) was 4.15 µM and the TGI (NCI/ADR-RES ovarian) was 23 µM. For the same compound, the GI50 (SNB-75 CNS) was 9.07 µM, the TGI (SNB-75 CNS) was 61.8 µM and the GI50 (SN12C renal) was 14 µM. For the same compound, the TGI (SN12C renal) was 35.2 µM, the GI50 (K-562 leukemia) was 1.93 µM and the TGI (K-562 leukemia) was 5.44 µM. For the same compound, the GI50 (RXF 393 renal) was 3.83 µM, the TGI (RXF 393 renal) was 16.3 µM and the GI50 (RPMI-8226 leukemia) was 2.96 µM. The TGI (RPMI-8226 leukemia) was 13.9 µM, the GI50 (BT-549 breast) was 8.94 µM and the TGI (BT-549 breast) was 22.8 µM. The GI50 (CAKI-1 renal) was 14.3 µM, the TGI (CAKI-1 renal) was 31.8 µM and the GI50 (HS 578T breast) was 9.64 µM. For the same compound, the TGI (HS 578T breast) was 50.6 µM, the GI50 (EKVX NSCLC) was 11.1 µM and the TGI (EKVX NSCLC) was 30.8 µM. For the same compound, the GI50 (OVCAR-5 ovarian) was 9.72 µM, the TGI (OVCAR-5 ovarian) was 23 µM and the GI50 (OVCAR-3 ovarian) was 3.35 µM. For the same compound, the TGI (OVCAR-3 ovarian) was 11.9 µM, the GI50 (LOX IMVI melanoma) was 1.74 µM and the TGI (LOX IMVI melanoma) was 3.3 µM. The GI50 (MDA-MB-435) was 4.8 µM, the TGI (MDA-MB-435) was 18.2 µM and the GI50 (MDA-MB-231 breast) was 14 µM. The TGI (MDA-MB-231 breast) was 31.5 µM, the GI50 (HT29 colon) was 2.31 µM and the TGI (HT29 colon) was 5.95 µM. The GI50 (SF-295 CNS) was 13.8 µM, the TGI (SF-295 CNS) was 27.6 µM and the GI50 (SF-268 CNS) was 16.1 µM. The TGI (SF-268 CNS) was 50.8 µM, the GI50 (ACHN renal) was 15 µM and the TGI (ACHN renal) was 31.2 µM. The GI50 (NCI-H226 lung) was 5.09 µM, the TGI (NCI-H226 lung) was 23.6 µM and the GI50 (HCC-2998 colon) was 1.91 µM. The TGI (HCC-2998 colon) was 3.67 µM, the GI50 (SK-OV-3 ovarian) was 40 µM and the TGI (SK-OV-3 ovarian) was > 100 µM. It also gave a GI50 (SW-620 colon) of 2.01 µM, a TGI (SW-620 colon) of 5.52 µM and a GI50 (HCT-116 colon) of 1.8 µM. It also gave a TGI (HCT-116 colon) of 3.57 µM, a GI50 (OVCAR-8 ovarian) of 7.29 µM and a TGI (OVCAR-8 ovarian) of 78.8 µM. It also gave a GI50 (TK-10 renal) of 28.5 µM, a TGI (TK-10 renal) of 69.9 µM and a GI50 (UACC-257 melanoma) of 11.3 µM. It also gave a TGI (UACC-257 melanoma) of 31.7 µM, a GI50 (NCI-H23 lung) of 6.16 µM and a TGI (NCI-H23 lung) of 21.1 µM. It also gave a GI50 (CCRF-CEM leukemia) of 2.21 µM, a TGI (CCRF-CEM leukemia) of 6.22 µM and a GI50 (HOP-92 NSCLC) of 2.12 µM. It also gave a TGI (HOP-92 NSCLC) of 7.64 µM, a GI50 (COLO 205 colon) of 12.8 µM and a TGI (COLO 205 colon) of 29.4 µM. The GI50 (MOLT-4 leukemia) was 3.64 µM, the TGI (MOLT-4 leukemia) was 16 µM and the GI50 (SR leukemia) was 1.75 µM. The TGI (SR leukemia) was 3.74 µM, the GI50 (SK-MEL-5 melanoma) was 10.3 µM and the TGI (SK-MEL-5 melanoma) was 22.3 µM. For the same compound, the GI50 (SF-539 CNS) was 7.78 µM, the TGI (SF-539 CNS) was 20.4 µM and the GI50 (A549 NSCLC) was 15.5 µM. For the same compound, the TGI (A549 NSCLC) was 46 µM, the GI50 (IGROV1 ovarian) was 3.34 µM and the TGI (IGROV1 ovarian) was 13.1 µM. It also gave a GI50 (MCF7 breast) of 1.65 µM, a TGI (MCF7 breast) of 5.14 µM and a GI50 (HOP-62 NSCLC) of 14.6 µM. For the same compound, the TGI (HOP-62 NSCLC) was 31.3 µM, the GI50 (A498 renal) was 0.57 µM and the TGI (A498 renal) was 93.6 µM. It also gave a GI50 (UO-31 renal) of 14.9 µM, a TGI (UO-31 renal) of 38.7 µM and a GI50 (KM12 colon) of 3.01 µM. The TGI (KM12 colon) was 9.33 µM, the GI50 (786-0 renal) was 14.9 µM and the TGI (786-0 renal) was 32.3 µM. It also gave a GI50 (DU-145 prostate) of 7.13 µM, a TGI (DU-145 prostate) of 20.3 µM and a GI50 (T-47D breast) of 2.76 µM. It also gave a TGI (T-47D breast) of 17.9 µM, a GI50 (NCI-H460 lung) of 11 µM and a TGI (NCI-H460 lung) of 25.9 µM. The GI50 (PC-3 prostate) was 2.91 µM, the TGI (PC-3 prostate) was 18.8 µM and the GI50 (HCT-15 colon) was 1.99 µM. The TGI (HCT-15 colon) was 7.4 µM, the GI50 (SNB-19 CNS) was 8.56 µM and the TGI (SNB-19 CNS) was 21.3 µM. It also gave a GI50 (M14 melanoma) of 7.77 µM, a TGI (M14 melanoma) of 23.3 µM and a GI50 (UACC-62 melanoma) of 13.1 µM. For the same compound, the TGI (UACC-62 melanoma) was 27.9 µM, the GI50 (OVCAR-4 ovarian) was 6.16 µM and the TGI (OVCAR-4 ovarian) was 23.2 µM. The GI50 (HL-60(TB) leukemia) was 1.96 µM, the TGI (HL-60(TB) leukemia) was 4.36 µM and the GI50 (SK-MEL-2 melanoma) was 12 µM. For the same compound, the TGI (SK-MEL-2 melanoma) was 27.2 µM, the GI50 (SK-MEL-28 melanoma) was 3.15 µM and the TGI (SK-MEL-28 melanoma) was 12.6 µM.
